Data reported in US20060287252A1, “Substances k01-0509 and process for producing the same” (priority 2004, published 2006).

What was measured:
Assay type in all cases: cell-based
[1] = tested on: Micrococcus luteus ATCC 9341; test: Antibiotic activity by paper disc method; settings: 10 μg/disc, paper disc 6 mm, nutrient agar, 24 hours cultivation
[2] = tested on: Xanthomonas campestris pv. oryzae KB88
[3] = tested on: enteropathogenic E. coli E2348/69 (wild strain)
[4] = tested on: Bacillus subtilis ATCC 6633; test: Antibiotic activity by paper disc method; settings: 10 μg/disc, paper disc 6 mm, nutrient agar, 24 hours cultivation
E. coli NIHJ = test: Antibiotic activity by paper disc method; settings: 10 μg/disc, paper disc 6 mm, nutrient agar, 24 hours cultivation

Measured: inhibition zone

CC(NC(=O)C1NC(C)C(=O)NC1CCC(O)C(O)CC1CNC(=N)N1C(N)=O)C(=O)NC(C(=O)O)C(C)C (stereo not shown) [K01-0509-A1 substance]
no inhibition zone: all assays above

CC(NC(=O)C1NC(C)C(=O)NC1CCC(O)C(O)CC1CNC(=N)N1C(N)=O)C(=O)NC(C(=O)O)C(C)C (stereo not shown) [K01-0509-A2 substance]
no inhibition zone: [2] | [3]
